Experimental data as given in ChEMBL document CHEMBL4390668, “Discovery and Structural Optimization of Acridones as Broad-Spectrum Antimalarials” (J Med Chem, 2019).
Activity calls are given as the source filed them. No cut-off for these calls is given here.

What was measured:
[1] = Mean residence time in ICR mouse plasma at 80 mg/kg, po administered as single dose; assay type: ADME, organism-based
[2] = Apparent volume of distribution in ICR mouse plasma at 80 mg/kg, po administered as single dose; assay type: ADME, organism-based; settings: in vivo
[3] = Apparent elimination half life in ICR mouse plasma at 80 mg/kg, po administered as single dose; assay type: ADME, organism-based; settings: for half-life: ICR, plasma, read-out: betat1/2(app) (converted)
Plasmodium yoelii [4] = assay: Antimalarial activity against blood stage Plasmodium yoelii MR4 MRA-428 infected in CF1 mouse assessed as suppression of parasitemia administered once daily via oral gavage for 4 days starting from 24 hrs post-infection and measured post-last dose by Giemsa-staining based microscopic analysis; assay type: functional
Plasmodium falciparum [5] = assay: Antimalarial activity against chloroquine-sensitive Plasmodium falciparum D6 infected in human erythrocytes by SYBR green 1-based fluorescence assay; assay type: functional, organism-based
Plasmodium falciparum [6] = assay: Antimalarial activity against multidrug-resistant Plasmodium falciparum Dd2 infected in human erythrocytes by SYBR green 1-based fluorescence assay; assay type: functional, organism-based
Plasmodium falciparum [7] = assay: Antimalarial activity against multidrug-resistant Plasmodium falciparum 7G8 infected in human erythrocytes by SYBR green 1-based fluorescence assay; assay type: functional, organism-based
Plasmodium falciparum [8] = assay: Antimalarial activity against atovaquone-resistant Plasmodium falciparum Tm90-C2B infected in human erythrocytes by SYBR green 1-based fluorescence assay; assay type: functional, organism-based
HepG2 = assay: Cytotoxicity against human HepG2 cells measured after 24 to 36 hrs by resazurin dye based fluorescence assay; assay type: cell-based
[9] = Selectivity index, ratio of IC50 for human HepG2 cells to IC50 for chloroquine-sensitive Plasmodium falciparum D6 infected in human erythrocytes; assay type: toxicity, cell-based; settings: read-out: Ratio IC50
Plasmodium berghei [10] = assay: Antimalarial activity against luciferase-expressing Plasmodium berghei ANKA 676m1cl1 sporozoites infected in human HepG2A16 cells measured after 45 hrs by luciferase-luciferin based reporter assay; assay type: functional, organism-based; settings: ANKA 676m1cl1, HepG2A16, 45 h
Plasmodium yoelii [11] = assay: Antimalarial activity against blood stage Plasmodium yoelii MR4 MRA-428 infected in CF1 mouse assessed as suppression of parasitemia at 80 mg/kg, po administered once daily via gavage for 4 days starting from 24 hrs post-infection and measured at weekly intervals for 28 days by Giemsa-staining based microscopic analysis; assay type: functional
[12] = Toxicity in CF1 mouse infected with blood stage Plasmodium yoelii MR4 MRA-428 assessed as clinical toxicity at 80 mg/kg, po administered once daily via gavage for 4 days starting from for 4 days starting from 24 hrs post-infection and measured daily during compound dosing; assay type: organism-based; settings: in vivo
[13] = Toxicity in CF1 mouse infected with blood stage Plasmodium yoelii MR4 MRA-428 assessed as behavioral changes at 80 mg/kg, po administered once daily via gavage for 4 days starting from for 4 days starting from 24 hrs post-infection and measured daily during compound dosing; assay type: organism-based; settings: in vivo
Plasmodium berghei [14] = assay: Antimalarial activity against liver stage luciferase-expressing Plasmodium berghei ANKA 676m1cl1 sporozoites infected in C57BL/6 mouse assessed as suppression of parasitemia at 10 mg/kg, po pretreated for 1 day followed by parasite infection and subsequent compound dosing for 2 days measured at 24 to 48 hrs post-infection by luciferin-based real-time imaging analysis; assay type: functional
Plasmodium berghei [15] = assay: Antimalarial activity against blood stage luciferase-expressing Plasmodium berghei ANKA 676m1cl1 sporozoites infected in C57BL/6 mouse assessed as suppression of parasitemia at 10 mg/kg, po pretreated for 1 day followed by parasite infection and subsequent compound dosing for 2 days measured up to 30 days post-infection by YOYO1 staining based flow cytometry; assay type: functional
hERG (KCNH2) = hERG (KCNH2) (Homo sapiens, UniProt Q12809); assay: Inhibition of human ERG expressed in CHOK1 cells at 10 uM by automated patch clamp method relative to control; assay type: cell-based; settings: CHO-K1 cells that express hERG
Chain of hERG (KCNH2) (Q12809 whole entry): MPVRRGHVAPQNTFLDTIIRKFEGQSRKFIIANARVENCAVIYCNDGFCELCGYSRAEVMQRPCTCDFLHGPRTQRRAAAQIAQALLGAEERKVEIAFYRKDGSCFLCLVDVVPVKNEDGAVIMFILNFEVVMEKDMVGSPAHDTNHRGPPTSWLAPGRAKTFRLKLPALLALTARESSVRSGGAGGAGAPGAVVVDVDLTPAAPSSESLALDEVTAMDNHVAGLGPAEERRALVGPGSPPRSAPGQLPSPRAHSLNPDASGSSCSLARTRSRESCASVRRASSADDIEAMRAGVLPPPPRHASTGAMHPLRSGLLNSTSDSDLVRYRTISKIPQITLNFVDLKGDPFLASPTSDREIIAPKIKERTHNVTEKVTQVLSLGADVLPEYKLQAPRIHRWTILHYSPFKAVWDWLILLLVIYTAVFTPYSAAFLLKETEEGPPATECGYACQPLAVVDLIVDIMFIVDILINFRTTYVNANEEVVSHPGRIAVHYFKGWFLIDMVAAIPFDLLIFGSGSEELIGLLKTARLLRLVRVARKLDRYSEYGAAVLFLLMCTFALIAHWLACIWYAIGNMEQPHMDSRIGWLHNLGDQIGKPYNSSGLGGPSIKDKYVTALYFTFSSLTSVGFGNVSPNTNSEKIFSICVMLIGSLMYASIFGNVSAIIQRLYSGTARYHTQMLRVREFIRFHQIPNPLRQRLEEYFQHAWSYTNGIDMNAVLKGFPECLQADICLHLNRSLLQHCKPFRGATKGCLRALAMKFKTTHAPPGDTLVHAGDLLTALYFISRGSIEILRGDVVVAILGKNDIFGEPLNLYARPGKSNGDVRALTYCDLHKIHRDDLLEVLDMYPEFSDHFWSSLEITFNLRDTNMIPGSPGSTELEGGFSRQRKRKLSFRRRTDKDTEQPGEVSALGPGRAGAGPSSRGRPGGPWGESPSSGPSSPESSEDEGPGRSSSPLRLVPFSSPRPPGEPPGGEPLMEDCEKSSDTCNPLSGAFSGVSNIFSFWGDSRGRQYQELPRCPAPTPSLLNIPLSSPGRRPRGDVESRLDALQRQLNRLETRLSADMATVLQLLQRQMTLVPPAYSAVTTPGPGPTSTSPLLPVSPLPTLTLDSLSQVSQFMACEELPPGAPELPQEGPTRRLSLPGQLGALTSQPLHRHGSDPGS

[16] = Half life in human liver microsomes at 1 uM by LC-MS analysis; assay type: ADME, Microsome
[17] = Mutagenicity in Salmonella typhimurium TA100 assessed as increase in revertant colonies up to 10 uM in presence of S9 fraction by Ames test; assay type: toxicity, subcellular; settings: salmonella enterica subsp. enterica serovar typhimurium
[18] = Mutagenicity in Salmonella typhimurium TA100 assessed as increase in revertant colonies up to 10 uM in absence of S9 fraction by Ames test; assay type: toxicity; settings: salmonella enterica subsp. enterica serovar typhimurium
[19] = Mutagenicity in Salmonella typhimurium TA98 assessed as increase in revertant colonies up to 10 uM in presence of S9 fraction by Ames test; assay type: toxicity, subcellular; settings: salmonella enterica subsp. enterica serovar typhimurium
[20] = Mutagenicity in Salmonella typhimurium TA98 assessed as increase in revertant colonies up to 10 uM in absence of S9 fraction by Ames test; assay type: toxicity; settings: salmonella enterica subsp. enterica serovar typhimurium
[21] = Half life in mouse liver microsomes at 1 uM by LC-MS analysis; assay type: ADME, Microsome
[22] = Cmax in ICR mouse plasma at 80 mg/kg, po administered as single dose; assay type: ADME, organism-based; parameters: dose 80 mg/kg, route oral
[23] = Tmax in ICR mouse plasma at 80 mg/kg, po administered as single dose; assay type: ADME, organism-based
[24] = AUC (0 to last) in ICR mouse plasma at 80 mg/kg, po administered as single dose; assay type: ADME, organism-based; parameters: dose 80 mg/kg, route oral, time 0 - last
[25] = AUC (0 to infinity) in ICR mouse plasma at 80 mg/kg, po administered as single dose; assay type: ADME, organism-based; parameters: dose 80 mg/kg, route oral, time infinity; settings: for AUC(0-inf): ICR, plasma
[26] = Cmax in ICR mouse liver at 80 mg/kg, po administered as single dose; assay type: ADME, organism-based; parameters: dose 80 mg/kg, route oral
[27] = Tmax in ICR mouse liver at 80 mg/kg, po administered as single dose; assay type: ADME, organism-based
[28] = AUC (0 to last) in ICR mouse liver at 80 mg/kg, po administered as single dose; assay type: ADME, organism-based; parameters: dose 80 mg/kg, route oral, time 0 - last
[29] = AUC (0 to infinity) in ICR mouse liver at 80 mg/kg, po administered as single dose; assay type: ADME, organism-based; parameters: dose 80 mg/kg, route oral, time infinity
[30] = Apparent elimination half life in ICR mouse liver at 80 mg/kg, po administered as single dose; assay type: ADME, organism-based; settings: read-out: betat1/2(app) (converted)
[31] = Mean residence time in ICR mouse liver at 80 mg/kg, po administered as single dose; assay type: ADME, organism-based
Plasmodium falciparum [32] = assay: Antimalarial activity against drug-resistant Plasmodium falciparum Dd2 harboring V259L mutant infected in human erythrocytes after 72 hrs by SYBR green 1-based fluorescence assay; assay type: functional, organism-based; settings: Dd2, 72 h
Plasmodium falciparum [33] = assay: Antimalarial activity against drug-resistant Plasmodium falciparum Dd2 harboring M133I/A138T double mutant infected in human erythrocytes after 72 hrs by SYBR green 1-based fluorescence assay; assay type: functional, organism-based; settings: Dd2, 72 h
Plasmodium falciparum [34] = assay: Antimalarial activity against Plasmodium falciparum 3D7 infected in human erythrocytes after 72 hrs by SYBR green 1-based fluorescence assay; assay type: functional, organism-based; settings: 3D7, 72 h
Plasmodium falciparum [35] = assay: Antimalarial activity against drug-resistant Plasmodium falciparum 3D7 harboring A82T/V259L double mutant infected in human erythrocytes after 72 hrs by SYBR green 1-based fluorescence assay; assay type: functional, organism-based; settings: 3D7, 72 h
Plasmodium falciparum [36] = assay: Inhibition of Plasmodium falciparum cytochrome b-c1
[37] = Apparent clearance in ICR mouse plasma at 80 mg/kg, po administered as single dose; assay type: ADME, organism-based; settings: read-out: CL(app) (converted)
Plasmodium falciparum [38] = assay: Antimalarial activity against drug-resistant Plasmodium falciparum Dd2 harboring M133I mutant infected in human erythrocytes after 72 hrs by SYBR green 1-based fluorescence assay; assay type: functional, organism-based; settings: Dd2, 72 h

SMILES | MRT [1] [h] | Vz [2] [L/kg] | ED50 (Plasmodium yoelii [4]) [mg/kg.day] | IC50 (Plasmodium falciparum [5]) [nM] | IC50 (Plasmodium falciparum [6]) [nM] | IC50 (Plasmodium falciparum [7]) [nM] | IC50 (Plasmodium falciparum [8]) [nM] | IC50 (HepG2) [nM] | selectivity ratio [9] | IC50 (Plasmodium berghei [10]) [nM] | Activity (Plasmodium berghei [14]) [%] | Activity (Plasmodium berghei [15]) [%] | inhibition at 10 µM (hERG (KCNH2)) [%] | half-life at 1 µM [16] [h] | Activity [17] | Activity [18] | Activity [19] | Activity [20] | half-life at 1 µM [21] [h] | AUC(0-t) [24] [ng·h/mL] | also measured
CCCN(CCC)CCOc1ccc2c(=O)c3c(F)cc(F)cc3[nH]c2c1 | 10.2 | 657.604 | 1.12 | 0.0003 | 0.0003 to 0.23 | 0.0003 | 6.8 | 42800 | > 100000 | 1.4 | 100 | 100 | 65 | 0.267 | Non-Toxic | Non-Toxic | Non-Toxic | Non-Toxic | 0.25 | 7560 | betat1/2(app) ([3]; in vivo): 54.24 h; Activity (Plasmodium yoelii [11]): 100%; Activity [12]: Non-Toxic; Activity [13]: Non-Toxic; Cmax ([22]; in vivo): 99 ng/mL; Tmax ([23]; in vivo): 7 h; AUC ([25]; in vivo): 56485 ng·h/mL; Cmax [26]: 3930 ng/mL; Tmax [27]: 7 h; AUC(0-t) [28]: 63900 ng·h/mL; AUC(0-inf) [29]: 102000 ng·h/mL; half-life [30]: 13.8 h; MRT [31]: 8.9 h; IC50 (Plasmodium falciparum [32]): 5.5 nM; IC50 (Plasmodium falciparum [33]): 0.86 nM; IC50 (Plasmodium falciparum [34]): 0.3 nM; IC50 (Plasmodium falciparum [35]): 17 nM; inhibition (Plasmodium falciparum [36]): inactive
CCCN(CCC)CCCOc1ccc2c(=O)c3c(F)cc(F)cc3[nH]c2c1 | 11.8 | 175.302 | 0.6 | 0.35 | 0.49 | 2.1 | 440 | 61500 | 176000 | 3.4 | 100 | 100 | 102 | > 1 | Non-Toxic | Non-Toxic | Non-Toxic | Non-Toxic | > 1 | 3430 | half-life [3]: 7.78 h; ED90 (Plasmodium yoelii [4]): 2.48 mg/kg.day; Cmax ([22]; ICR, plasma, read-out: Cmax): 526 ng/mL; Tmax ([23]; ICR, plasma, read-out: Tmax): 7.78 h; AUC(0-inf) [25]: 5080 ng·h/mL; CL/F [37]: 265 mL/min/kg; Cmax [26]: 19700 ng/mL; Tmax [27]: 4 h; AUC(0-t) [28]: 236000 ng·h/mL; AUC(0-inf) [29]: 237000 ng·h/mL; half-life [30]: 6.59 h; MRT [31]: 13.3 h
CCCCN(CCCC)CC(O)c1cc(Cl)cc2c1-c1ccc(Cl)cc1/C2=C/c1ccc(Cl)cc1 (stereo unspecified) [LUMEFANTRINE] | – | – | – | – | 5.7 | – | – | – | – | – | – | – | – | – | – | – | – | – | – | – | IC50 (Plasmodium falciparum [32]): 6.5 nM; IC50 (Plasmodium falciparum [33]): 3.6 nM; IC50 (Plasmodium falciparum [38]): 3.6 nM; IC50 (Plasmodium falciparum [34]): 3 nM; IC50 (Plasmodium falciparum [35]): 4.5 nM; inhibition (Plasmodium falciparum [36]): inactive
CCCN(CCC)CCOc1ccc2c(=O)c3c(Cl)c(Cl)ccc3[nH]c2c1 | 4.69 | 58.684 | 1.04 | 0.17 | 0.05 to 9 | 0.3 | 142 | 41600 | 245000 | 1.1 | 100 | 100 | 25 | 0.183 | Non-Toxic | Non-Toxic | Non-Toxic | Non-Toxic | 0.283 | 3840 | half-life [3]: 2.29 h; ED90 (Plasmodium yoelii [4]): 1.14 mg/kg.day; Activity (Plasmodium yoelii [11]): 100%; Activity [12]: Non-Toxic; Activity [13]: Non-Toxic; Cmax ([22]; ICR, plasma, read-out: Cmax): 631 ng/mL; Tmax ([23]; ICR, plasma, read-out: Tmax): 5.5 h; AUC(0-inf) [25]: 4520 ng·h/mL; CL/F [37]: 295 mL/min/kg; Cmax [26]: 42300 ng/mL; Tmax [27]: 7 h; AUC(0-t) [28]: 547000 ng·h/mL; AUC(0-inf) [29]: 547000 ng·h/mL; half-life [30]: 1.84 h; MRT [31]: 6.07 h; IC50 (Plasmodium falciparum [32]): 216 nM; IC50 (Plasmodium falciparum [33]): 50 nM; IC50 (Plasmodium falciparum [35]): 79 nM; inhibition (Plasmodium falciparum [36]): inactive
